# Test results from ChEMBL document CHEMBL1140643, “Synthesis of 4-phenoxybenzamide adenine dinucleotide as NAD analogue with inhibitory activity against enoyl-ACP reductase (InhA) of Mycobacterium tuberculosis” (Bioorg Med Chem Lett, 2007).
# Assays:
# [1] = target: T1, Enoyl-[acyl-carrier-protein] reductase [NADH] (Mycobacterium tuberculosis) (UniProt P9WGR1); assay: Inhibition of Mycobacterium tuberculosis InhA at 100 uM
# T1 sequence (whole entry): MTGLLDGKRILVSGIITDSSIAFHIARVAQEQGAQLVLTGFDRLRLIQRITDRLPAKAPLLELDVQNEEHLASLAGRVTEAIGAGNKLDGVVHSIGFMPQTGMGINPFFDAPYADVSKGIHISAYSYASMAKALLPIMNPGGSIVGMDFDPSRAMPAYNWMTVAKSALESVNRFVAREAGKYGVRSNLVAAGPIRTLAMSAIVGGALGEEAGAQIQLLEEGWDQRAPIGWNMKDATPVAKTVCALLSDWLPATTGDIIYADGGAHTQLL
# [2] = target: T1, Enoyl-[acyl-carrier-protein] reductase [NADH] (Mycobacterium tuberculosis); assay: Inhibition of Mycobacterium tuberculosis InhA at 700 uM
# [3] = target: T2, Enoyl-[acyl-carrier-protein] reductase [NADH] (Mycobacterium tuberculosis, UniProt P9WGR1); assay: Inhibition of Mycobacterium tuberculosis InhA
# T2 sequence (P9WGR1 whole entry): T1 sequence (whole entry)
smiles,measurement,setting,value
NC(=O)c1cc([C@@H]2O[C@H](COP(=O)(O)O)[C@@H](O)[C@H]2O)ccc1Oc1ccccc1,inhibition,[1],12%
NC(=O)c1cc([C@@H]2O[C@H](CO)[C@@H](O)[C@H]2O)ccc1Oc1ccccc1,inhibition,[2],25%
NC(=O)c1cc([C@@H]2O[C@H](COP(=O)(O)OP(=O)(O)OC[C@H]3O[C@@H](n4cnc5c(N)ncnc54)[C@H](O)[C@@H]3O)[C@@H](O)[C@H]2O)ccc1Oc1ccccc1,IC50,[3],27 µM
